Measured values taken from patent publication US9181234B2, “Antibacterial compounds” (priority 2010, dated 2015).
In brackets after ≈: the same amount, converted by molar mass.

Assays:
[1] = system: Streptococcus pyogenes (Isolate ID ATCC 51339); assay: Antibacterial activity, MIC, S. pyogenes; type: cell-based; conditions: Streptococcus pyogenes, ATCC51339, Gram positive strain; broth microdilution or agar dilution
In short: (§1)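 CLSI-guided dilution susceptibility testing (broth or agar) gave the MIC for each strain.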

[2] = system: Staphylococcus aureus (Isolate ID ATCC 29213); assay: Antibacterial activity, MIC, S. aureus; type: cell-based; conditions: Staphylococcus aureus, ATCC29213, Gram positive strain; broth microdilution or agar dilution
In short: as §1

[3] = system: Haemophilus influenzae (Isolate ID ATCC 49247); assay: Antibacterial activity, MIC, H. influenzae; type: cell-based; conditions: Haemophilus influenzae, ATCC49247; Gram negative strain; broth microdilution or agar dilution
In short: as §1

physchem = conditions: kinetic from dmso stock
In short: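 DMSO doubling dilutions were diluted twenty-fold into 100 mM citrate (pH 4), PBS (pH 7.4) or carbonate-bicarbonate (pH 9). After 24 h equilibration at room temperature, absorbance was read at 620 nm. The reported value is the highest concentration without measurable precipitate.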

[4] = system: Enterococcus faecalis (Isolate ID ATCC 29212); assay: Antibacterial activity, MIC, E. faecalis; type: cell-based; conditions: Enterococcus faecalis, ATCC29212; Gram positive strain; broth microdilution or agar dilution
In short: as §1

[5] = pH 7.4, aqueous buffer, Solubility (pH 7.4)
[6] = pH 7.4, aqueous buffer, Solubility Range
[7] = pH 7.4, aqueous buffer, Max Solubility
[8] = pH 7.4, aqueous buffer, Solubility Range (maximum solubility)
[9] = pH 9, aqueous buffer, Max Solubility
[10] = pH 9, aqueous buffer, Solubility Range (maximum solubility)

SMILES | MIC [1] [µg/mL] | MIC [2] [µg/mL] | MIC [3] [µg/mL] | solubility at 24 h (physchem; [5]) [µg/mL] | solubility at 24 h (physchem; [6]) [µg/mL] | MIC [4] [µg/mL] | solubility at 24 h (physchem; [7]) [µg/mL] | solubility at 24 h (physchem; [8]) [µg/mL] | solubility at 24 h (physchem; [9]) [µg/mL] | solubility at 24 h (physchem; [10]) [µg/mL]
CCNC(=O)Nc1nc2cc(-c3cnc(N4CCC(OC)(C(=O)O)CC4)nc3)cc(-c3ccccn3)c2s1 [Compound 132] | ≤ 0.25 | 0.25 to 1 (≈ 0.469 to 1.87 µM) | 1 to 16 (≈ 1.87 to 30 µM) | 400 (≈ 750 µM) | 400 to 800 (≈ 750 to 1500 µM) | ≤ 0.25 |  |  |  | 
CCNC(=O)Nc1nc2cc(-c3cnc(N4CCC(C(=O)O)(S(C)(=O)=O)CC4)nc3)cc(-c3ccccn3)c2s1 [Compound 133] | 1 to 16 (≈ 1.72 to 27.5 µM) | > 16 | > 16 | ≥ 800 | > 800 | 1 to 16 (≈ 1.72 to 27.5 µM) |  |  |  | 
CCNC(=O)Nc1nc2cc(-c3cnc(N4CCC(Cc5ccccc5)(C(=O)O)CC4)nc3)cc(-c3ccccn3)c2s1 [Compound 134] | 0.25 to 1 (≈ 0.421 to 1.68 µM) | ≤ 0.25 | > 16 | 100 (≈ 168 µM) | 12.5 to 400 (≈ 21.1 to 674 µM) | ≤ 0.25 |  |  |  | 
CCNC(=O)Nc1nc2cc(-c3cnc(N4CCC(F)(C(=O)O)CC4)nc3)cc(-c3ccccn3)c2s1 [Compound 135] | ≤ 0.25 | 1 to 16 (≈ 1.92 to 30.7 µM) | 1 to 16 (≈ 1.92 to 30.7 µM) | 400 (≈ 767 µM) | 400 to 800 (≈ 767 to 1530 µM) | ≤ 0.25 |  |  |  | 
CCNC(=O)Nc1nc2cc(-c3cnc(N4CCC(C(=O)O)(C(C)C)CC4)nc3)cc(-c3ccccn3)c2s1 [Compound 137] | ≤ 0.25 | ≤ 0.25 | 1 to 16 (≈ 1.83 to 29.3 µM) | 400 (≈ 733 µM) | 400 to 800 (≈ 733 to 1470 µM) | ≤ 0.25 |  |  |  | 
CCNC(=O)Nc1nc2cc(-c3cnc(N4CCC(SC)(C(=O)O)CC4)nc3)cc(-c3ccccn3)c2s1 [Compound 138] | ≤ 0.25 | ≤ 0.25 | 1 to 16 (≈ 1.82 to 29.1 µM) | ≥ 800 | > 800 | ≤ 0.25 |  |  |  | 
C=CCC1(C(=O)O)CCN(c2ncc(-c3cc(-c4cnccn4)c4sc(NC(=O)NCC)nc4c3)cn2)CC1 [Compound 139, 4-allyl-1-[5-[2-(ethylcarbamoylamino)-7-pyrazin-2-yl-1,3-benzothiazol-5-yl]pyrimidin-2-yl]piperidine-4-carboxylic acid] | ≤ 0.25 | ≤ 0.25 | 1 to 16 (≈ 1.84 to 29.4 µM) | ≥ 800 | > 800 | ≤ 0.25 |  |  |  | 
CCNC(=O)Nc1nc2cc(-c3cnc(N4CCC(CC(F)(F)F)(C(=O)O)CC4)nc3)cc(-c3ccccn3)c2s1 [Compound 140] | ≤ 0.25 | 0.25 to 1 (≈ 0.427 to 1.71 µM) | 1 to 16 (≈ 1.71 to 27.3 µM) | ≥ 800 | > 800 | ≤ 0.25 | ≥ 800 | > 800 |  | 
CCNC(=O)Nc1nc2cc(-c3cnc(N4CCC(C(=O)O)(C(F)(F)F)CC4)nc3)cc(-c3ccccn3)c2s1 [Compound 142, 1-[5-[2-(ethylcarbamoylamino)-7-(2-pyridyl)-1,3-benzothiazol-5-yl]pyrimidin-2-yl]-4-(trifluoromethyl)piperidine-4-carboxylic acid] | ≤ 0.25 | 1 to 16 (≈ 1.75 to 28 µM) | 1 to 16 (≈ 1.75 to 28 µM) | ≥ 800 | > 800 | ≤ 0.25 | ≥ 800 | > 800 |  | 
CCNC(=O)Nc1nc2cc(-c3cnc(N4CCC(C)(C(=O)O)CC4)nc3)cc(C#Cc3cncn3C)c2s1 [Compound 144, 1-[5-[2-(ethylcarbamoylamino)-7-[2-(3-methylimidazol-4-yl)ethynyl]-1,3-benzothiazol-5-yl]pyrimidin-2-yl]-4-methyl-piperidine-4-carboxylic acid] | ≤ 0.25 | 0.25 to 1 (≈ 0.459 to 1.84 µM) | 0.25 to 1 (≈ 0.459 to 1.84 µM) | 400 (≈ 734 µM) | 400 to 800 (≈ 734 to 1470 µM) | ≤ 0.25 |  |  |  | 
CCNC(=O)Nc1nc2cc(-c3cnc(N4CCC(C)(C(=O)O)CC4)nc3)cc(C(=O)Nc3nccs3)c2s1 [Compound 145, 1-[5-[2-(ethylcarbamoylamino)-7-(thiazol-2-ylcarbamoyl)-1,3-benzothiazol-5-yl]pyrimidin-2-yl]-4-methyl-piperidine-4-carboxylic acid] | 1 to 16 (≈ 1.76 to 28.2 µM) | > 16 | > 16 | ≥ 800 | > 800 | 0.25 to 1 (≈ 0.441 to 1.76 µM) |  |  |  | 
CCNC(=O)Nc1nc2cc(-c3cnc(N4CCC(C)(C(=O)O)CC4)nc3)cc(NC(=O)c3ncccn3)c2s1 [Compound 146, 1-[5-[2-(ethylcarbamoylamino)-7-(pyrimidine-2-carbonylamino)-1,3-benzothiazol-5-yl]pyrimidin-2-yl]-4-methyl-piperidine-4-carboxylic acid] | > 16 | > 16 | > 16 | 50 (≈ 89 µM) | 12.5 to 400 (≈ 22.3 to 712 µM) | > 16 |  |  |  | 
CCNC(=O)Nc1nc2cc(-c3cnc(N4CCC(C)(C(=O)O)CC4)nc3)cc(CN(C)c3ncccn3)c2s1 [Compound 147, 1-[5-[2-(ethylcarbamoylamino)-7-[[methyl(pyrimidin-2-yl)amino]methyl]-1,3-benzothiazol-5-yl]pyrimidin-2-yl]-4-methyl-piperidine-4-carboxylic acid] | 0.25 to 1 (≈ 0.445 to 1.78 µM) | 1 to 16 (≈ 1.78 to 28.5 µM) | 1 to 16 (≈ 1.78 to 28.5 µM) | ≥ 800 | > 800 | ≤ 0.25 |  |  |  | 
CCNC(=O)Nc1nc2cc(-c3cnc(N4CCC(C)(C(=O)O)CC4)nc3)cc(C#Cc3cccnc3)c2s1 [Compound 148] | ≤ 0.25 | ≤ 0.25 | 0.25 to 1 (≈ 0.462 to 1.85 µM) | ≥ 800 | > 800 | ≤ 0.25 | ≥ 800 | > 800 |  | 
CCNC(=O)Nc1nc2cc(-c3cnc(N4CCC(C)(C(=O)O)CC4)nc3)cc(NC(=O)c3ccccn3)c2s1 [Compound 149, 1-(5-(2-(3-ethylureido)-7-(picolinamido)benzo[d]thiazol-5-yl)pyrimidin-2-yl)-4-methylpiperidine-4-carboxylic acid] | 0.25 to 1 (≈ 0.446 to 1.78 µM) | 1 to 16 (≈ 1.78 to 28.5 µM) | 1 to 16 (≈ 1.78 to 28.5 µM) | ≥ 800 | > 800 | ≤ 0.25 | ≥ 800 | > 800 |  | 
CCNC(=O)Nc1nc2cc(-c3cnc(N4CCC(C)(C(=O)O)CC4)nc3)cc(C#CC3CCCC3)c2s1 [Compound 150] | > 16 | 0.25 to 1 (≈ 0.469 to 1.88 µM) | > 16 | ≥ 800 | > 800 | ≤ 0.25 | ≥ 800 | > 800 |  | 
CCNC(=O)Nc1nc2cc(-c3cnc(N4CCC(C)(C(=O)O)CC4)nc3)cc(C#Cc3ccncc3)c2s1 [Compound 151] | 0.25 to 1 (≈ 0.462 to 1.85 µM) | 0.25 to 1 (≈ 0.462 to 1.85 µM) | 1 to 16 (≈ 1.85 to 29.5 µM) | 400 (≈ 739 µM) | 400 to 800 (≈ 739 to 1480 µM) | ≤ 0.25 |  |  | ≥ 800 | > 800
CCNC(=O)Nc1nc2cc(-c3cnc(N4CCC(C)(C(=O)O)CC4)nc3)cc(C#Cc3cccc(OC)n3)c2s1 [Compound 152, 1-[5-[2-(ethylcarbamoylamino)-7-[2-(6-methoxy-2-pyridyl)ethynyl]-1,3-benzothiazol-5-yl]pyrimidin-2-yl]-4-methyl-piperidine-4-carboxylic acid] | ≤ 0.25 | ≤ 0.25 | 1 to 16 (≈ 1.75 to 28 µM) | 100 (≈ 175 µM) | 12.5 to 400 (≈ 21.9 to 700 µM) | ≤ 0.25 |  |  | ≥ 800 | > 800
CCNC(=O)Nc1nc2cc(-c3cnc(N4CCC(C)(C(=O)O)CC4)nc3)cc(C#Cc3nnc(C)s3)c2s1 [Compound 153] | 0.25 to 1 (≈ 0.444 to 1.78 µM) | 0.25 to 1 (≈ 0.444 to 1.78 µM) | 1 to 16 (≈ 1.78 to 28.4 µM) | 100 (≈ 178 µM) | 12.5 to 400 (≈ 22.2 to 711 µM) | ≤ 0.25 |  |  | 400 (≈ 711 µM) | 400 to 800 (≈ 711 to 1420 µM)
CCNC(=O)Nc1nc2cc(-c3cnc(N4CCC(C)(C(=O)O)CC4)nc3)cc(C#Cc3ncccn3)c2s1 [Compound 154] | 0.25 to 1 (≈ 0.461 to 1.84 µM) | 1 to 16 (≈ 1.84 to 29.5 µM) | 1 to 16 (≈ 1.84 to 29.5 µM) | 200 (≈ 369 µM) | 12.5 to 400 (≈ 23 to 737 µM) | ≤ 0.25 |  |  | 400 (≈ 737 µM) | 400 to 800 (≈ 737 to 1470 µM)
CCNC(=O)Nc1nc2cc(-c3cnc(N4CCC(C)(C(=O)O)CC4)nc3)cc(C#Cc3ccncn3)c2s1 [Compound 155] | 0.25 to 1 (≈ 0.461 to 1.84 µM) | 1 to 16 (≈ 1.84 to 29.5 µM) | 1 to 16 (≈ 1.84 to 29.5 µM) | 400 (≈ 737 µM) | 400 to 800 (≈ 737 to 1470 µM) | ≤ 0.25 |  |  | ≥ 800 | > 800
CCNC(=O)Nc1nc2cc(-c3cnc(N4CCC(C)(C(=O)O)CC4)nc3)cc(C#Cc3nccs3)c2s1 [Compound 156] | ≤ 0.25 | ≤ 0.25 | 1 to 16 (≈ 1.83 to 29.2 µM) | ≥ 800 | > 800 | ≤ 0.25 | ≥ 800 | > 800 |  | 
CCNC(=O)Nc1nc2cc(-c3cnc(N4CCC(C)(C(=O)O)CC4)nc3)cc(C#Cc3cnccn3)c2s1 [Compound 157] | ≤ 0.25 | ≤ 0.25 | 0.25 to 1 (≈ 0.461 to 1.84 µM) | ≥ 800 | > 800 | ≤ 0.25 | ≥ 800 | > 800 |  | 
CCNC(=O)Nc1nc2cc(-c3cnc(CN4CCC(C)(C(=O)O)CC4)nc3)cc(-c3ccccn3)c2s1 [Compound 160] | 1 to 16 (≈ 1.88 to 30.1 µM) | 1 to 16 (≈ 1.88 to 30.1 µM) | 1 to 16 (≈ 1.88 to 30.1 µM) | ≥ 800 | > 800 | 1 to 16 (≈ 1.88 to 30.1 µM) | ≥ 800 | > 800 |  | 
